Experiments:
murine NOD1 = target: T1, murine NOD1 (Mus musculus, UniProt Q8BHB0); details: cited from earlier work
T1 sequence (Q8BHB0 1-953): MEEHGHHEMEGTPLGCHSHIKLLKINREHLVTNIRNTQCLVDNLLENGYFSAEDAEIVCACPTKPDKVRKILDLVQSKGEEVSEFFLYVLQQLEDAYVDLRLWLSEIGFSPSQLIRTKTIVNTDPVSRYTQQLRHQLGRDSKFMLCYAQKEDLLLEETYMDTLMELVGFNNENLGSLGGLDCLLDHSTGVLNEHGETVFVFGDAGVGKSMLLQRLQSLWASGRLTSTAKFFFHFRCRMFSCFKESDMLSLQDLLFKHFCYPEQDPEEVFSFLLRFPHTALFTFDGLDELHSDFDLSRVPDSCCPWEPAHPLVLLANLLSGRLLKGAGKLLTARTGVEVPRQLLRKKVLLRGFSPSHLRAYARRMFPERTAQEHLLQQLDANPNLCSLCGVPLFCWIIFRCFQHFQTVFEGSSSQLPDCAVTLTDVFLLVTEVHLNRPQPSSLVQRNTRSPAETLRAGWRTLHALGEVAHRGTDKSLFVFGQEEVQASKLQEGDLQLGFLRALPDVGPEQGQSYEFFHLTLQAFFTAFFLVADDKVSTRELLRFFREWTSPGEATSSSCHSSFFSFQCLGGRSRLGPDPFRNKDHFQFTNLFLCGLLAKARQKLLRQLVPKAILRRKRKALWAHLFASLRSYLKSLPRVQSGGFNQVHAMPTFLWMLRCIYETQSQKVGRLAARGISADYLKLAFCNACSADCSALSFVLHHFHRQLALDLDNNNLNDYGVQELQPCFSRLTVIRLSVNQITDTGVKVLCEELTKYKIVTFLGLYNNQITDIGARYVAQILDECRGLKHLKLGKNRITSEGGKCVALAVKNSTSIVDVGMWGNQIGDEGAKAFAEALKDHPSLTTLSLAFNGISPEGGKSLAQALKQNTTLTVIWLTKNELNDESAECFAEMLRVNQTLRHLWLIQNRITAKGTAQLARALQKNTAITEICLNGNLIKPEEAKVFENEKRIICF

[1] = tested on: Graft-versus-host disease (GVHD); assay: Parent-to-F1 hybrid graft-versus-host disease (GVHD) model; assay type: in vivo, BALB/c×C57Bl/6 F1 hybrid mice; details: TCT 10 μg/mouse s.c. footpad 2 hours prior to induction; day 7
Text: Graft-versus-host disease (GVHD) is a major life-threatening complication of bone marrow transplantation, where T cells from the donor graft attack host cells leading to a condition that is only treatable using potent immunosuppressive drugs. It is possible to examine the potential of therapies for the prevention or treatment of GVHD in humans by testing their efficacy using a simple GVHD model in mice. The parent-to-F1 hybrid GVHD murine model involves the transfer of parental lymphocytes into non-conditioned F1 hybrid mice. Using this strain combination the host T cells cannot actively resist the donor cells.
GVHD was induced by transfer of 0.5×10^7 spleen cells from donor C57BL/6 mice into the footpads of BALB/c×C57Bl/6 F1 hybrid mice. Recipient mice were injected s.c into the footpad with PBS or TCT (10 μg/mouse) 2 hours prior to induction of GVHD. After 7 days, the popliteal lymph nodes were removed, weighed and cell numbers were recorded.

Bone marrow-derived DCs = assay: Surface expression of MHC Class II and costimulatory molecules on DCs by immunofluorescence analysis; assay type: cell-based, BALB/c mice
Description: Bone marrow-derived DCs from BALB/c mice were cultured for 6 hours with (i) TCT (10 μg/ml) or medium alone, then stimulated with B. pertussis LPS at (ii) 10 ng/ml and (iii) 100 ng/ml for a further 12 hours and analysed for surface expression of MHC Class II and costimulatory molecules by immunofluorescence analysis with Abs specific for MHC Class II (a), CD86 (b), and ICAM-1 (c). (FIG. 5).

[2] = tested on: cultured hamster respiratory epithelia; details: B. pertussis TCT; cited from earlier work
human NOD1 = target: T2, human NOD1 (Homo sapiens, UniProt Q9Y239); details: cited from earlier work
T2 sequence (Q9Y239 1-953): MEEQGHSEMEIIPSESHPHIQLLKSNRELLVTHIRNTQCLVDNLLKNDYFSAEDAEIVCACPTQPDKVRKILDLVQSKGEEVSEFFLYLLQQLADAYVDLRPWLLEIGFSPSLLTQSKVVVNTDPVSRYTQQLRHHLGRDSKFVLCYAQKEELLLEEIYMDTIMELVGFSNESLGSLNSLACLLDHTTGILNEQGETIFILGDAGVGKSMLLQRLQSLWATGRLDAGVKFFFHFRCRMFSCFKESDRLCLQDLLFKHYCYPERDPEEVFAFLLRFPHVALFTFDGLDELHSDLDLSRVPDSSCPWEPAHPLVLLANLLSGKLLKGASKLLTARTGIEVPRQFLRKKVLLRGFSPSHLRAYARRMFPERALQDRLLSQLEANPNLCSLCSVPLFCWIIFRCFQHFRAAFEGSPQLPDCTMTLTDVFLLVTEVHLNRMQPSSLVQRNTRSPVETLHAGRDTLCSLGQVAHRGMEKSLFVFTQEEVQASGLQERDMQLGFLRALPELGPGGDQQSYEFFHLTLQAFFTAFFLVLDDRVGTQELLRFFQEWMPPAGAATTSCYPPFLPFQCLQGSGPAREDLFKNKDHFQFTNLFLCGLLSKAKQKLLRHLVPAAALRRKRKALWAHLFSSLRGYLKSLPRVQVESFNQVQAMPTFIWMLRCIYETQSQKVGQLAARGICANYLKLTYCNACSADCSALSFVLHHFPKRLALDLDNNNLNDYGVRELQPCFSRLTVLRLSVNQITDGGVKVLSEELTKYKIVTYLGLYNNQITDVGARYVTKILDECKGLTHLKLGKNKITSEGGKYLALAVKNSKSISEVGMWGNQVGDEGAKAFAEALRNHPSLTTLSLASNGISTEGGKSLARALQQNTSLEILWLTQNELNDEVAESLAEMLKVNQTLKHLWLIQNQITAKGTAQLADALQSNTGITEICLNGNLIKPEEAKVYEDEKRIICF

CC(=O)NC1C(OC2C3COC(O3)C(NC(C)=O)C2OC(C)C(=O)NC(C)C(=O)NC(CCC(=O)NC(CCCC(N)C(=O)NC(C)C(=O)O)C(=O)O)C(=O)O)OC(CO)C(O)C1O (stereo not drawn) [TCT, N-acetylglucosaminyl-1,6-anhydro-N-acetylmuramylalanyl-γ-glutamyldiaminopimelylalanine]
NOD1 detection of TCT (murine NOD1): did so effectively
total cells counts in the lymph node of the recipient mice [1]: significantly reduced
weight of the lymph node of the recipient mice [1]: significantly reduced
B. pertussis LPS induced expression of the other costimulatory molecules (CD86, ICAM-1) (Bone marrow-derived DCs; 6 hours TCT pre-treatment): did not modulate
MHC Class II expression induced with B. pertussis LPS (Bone marrow-derived DCs; LPS 10 or 100 ng/ml, 6 hours TCT pre-treatment): reduced
MHC Class II expression on DCs (Bone marrow-derived DCs; TCT (10 μg/ml) alone): did not influence
co-stimulatory molecule expression on DCs (Bone marrow-derived DCs; TCT (10 μg/ml) alone): did not influence
ciliostasis and ciliated cell destruction [2]: causes ciliostasis, ciliated cell destruction
NOD1 detection of TCT (human NOD1): poorly detected

From patent US20090176696A1, “Methods And Compositions For Modulating An Immune Response” (priority 2006, published 2009)
